Columns and labels:
Format in all cases: cell-based
[1] = test system: recombinant CHO cell line; experiment: tc-uPA activity in culture of recombinant CHO cells, chromogenic assay (Pefachrome UK); conditions: for Activity of tc-uPA: 1 L Spinner-flask culture, 37° C., 5 days; for Activity on the chromogenic substrate: average of four fermentations
Method: (§1) At first, the optimal conditions related to butyrate concentration and temperature in a laboratory scale were determined. Preliminary experiments aimed at optimizing the Na-butyrate concentration were performed in a 1 L culture of the recombinant CHO cell line (1×10^6 cells/ml), in order to achieve the best tc-uPA (HMW and LMW) production and the higher cell viability after 5 days of cultivation in spinner-flasks.
(§2) In table 1 are reported the cell viability and the uPA yield after 5 days cultivation in 1 L Spinner-flask culture at 37° C. and at different Na-butyrate concentrations. uPA activity was followed by a chromogenic assay using the Pefachrome® UK (54-46) (Pentapharm, LTD, Basel, Switzerland) as chromogenic substrate, according to the manufacturer's instructions; the cell viability was followed every day and measured microscopically after Trypan blue dye-exclusion method, as described in Doyle et al. A, Griffiths, J B and Newell, D G (Eds.) (1994), in “Cell & Tissue Culture: Laboratory Procedures”. John Wiley & Sons. New York.
(§3) A second set of experiments was performed at 1.2 mM butyrate, in a 5-days fermentation to determine the optimal temperature in a 2 L culture (1.5-2×10^6 cells/ml) of the recombinant CHO cell line in bioreactor.
When the cellular density reached values of about 2×10^6 living cells/ml, the cells were separated from the exhausted medium by tangential filtration (or centrifugation). Cells were then resuspended in the bioreactor in the same original volume of fresh medium CHOMaster® with the addition of sodium butyrate to achieve a final concentration of 1.2 mM.
The production of active u-PA (tc-UPA HMW and LMW) was monitored by a chromogenic test on a specific substrate, Pefachrome® UK. A progressive increase of the activity was observed up to maximal values as high as 7000 IU/ml, achieved after 4-5 days of fermentation. At this point the cells were harvested and subsequently discarded and the exhausted culture medium, containing tc-uPA, was further processed for purification.

[2] = test system: recombinant CHO cell line; experiment: Cell viability of recombinant CHO culture, Trypan blue dye-exclusion
Method: as §1, §2, §3

[3] = test system: recombinant CHO cell line; experiment: tc-uPA activity in culture of recombinant CHO cells, chromogenic assay (Pefachrome UK); conditions: 1.2 mM butyrate, 32° C., after 12 days, 2 L bioreactor
[4] = test system: recombinant CHO cell line; experiment: Cell viability of recombinant CHO culture, Trypan blue dye-exclusion; conditions: 1.2 mM butyrate, 32° C., after 12 days, 2 L bioreactor

For `CCCC(=O)[O-].[Na+]` [Na-Butyrate, sodium butyrate], the “Activity of tc-uPA” value ([1]; 0.6 mM Na-Butyrate) was 526 IU/ml, the “Activity of tc-uPA” value ([1]; 1.2 mM Na-Butyrate) was 959 IU/ml and the “Activity of tc-uPA (5 days cultivation)” value ([1]; 1.2 mM Na-Butyrate, 32° C., 2 L bioreactor) was 800 IU/ml. For the same compound, the “Activity of tc-uPA (5 days cultivation)” value ([1]; 1.2 mM Na-Butyrate, 34° C., 2 L bioreactor) was 5043 IU/ml, the “Activity of tc-uPA (5 days cultivation)” value ([1]; 1.2 mM Na-Butyrate, 37° C. (control), 2 L bioreactor) was 1830 IU/ml and the “maximal activity on Pefachrome UK” value ([1]; 1.2 mM sodium butyrate, 34° C., after 4-5 days of fermentation, 2 L bioreactor) was ≤ 7000 IU/ml. For the same compound, the “Activity of tc-uPA” value ([1]; 2.5 mM Na-Butyrate) was 361 IU/ml, the “Activity on the chromogenic substrate” value ([1]; 1 day after addition of 1.2 mM Na-butyrate, 34° C., 2 L bioreactor) was 155 ± 23% and the “Activity on the chromogenic substrate” value ([1]; 2 days after addition of 1.2 mM Na-butyrate, 34° C., 2 L bioreactor) was 662 ± 32%. For the same compound, the “Activity on the chromogenic substrate” value ([1]; 3 days after addition of 1.2 mM Na-butyrate, 34° C., 2 L bioreactor) was 1995 ± 13%, the “Activity on the chromogenic substrate” value ([1]; 4 days after addition of 1.2 mM Na-butyrate, 34° C., 2 L bioreactor) was 3170 ± 23% and the “Activity on the chromogenic substrate” value ([1]; 5 days after addition of 1.2 mM Na-butyrate, 34° C., 2 L bioreactor) was 5043 ± 13%. It also gave a Cell viability ([2]; 0.6 mM Na-Butyrate, 1 L Spinner-flask culture, 37° C., 5 days) of 83%, a Cell viability ([2]; 1.2 mM Na-Butyrate, 1 L Spinner-flask culture, 37° C., 5 days) of 76% and a Cell viability ([2]; 1.2 mM Na-Butyrate, 32° C., 5 days, 2 L bioreactor) of 84%. It also gave a Cell viability ([2]; 1.2 mM Na-Butyrate, 34° C., 5 days, 2 L bioreactor) of 67%, a Cell viability ([2]; 1.2 mM Na-Butyrate, 37° C. (control), 5 days, 2 L bioreactor) of 53% and a Cell viability ([2]; 2.5 mM Na-Butyrate, 1 L Spinner-flask culture, 37° C., 5 days) of 56%. The Cell viability ([2]; 1 day after addition of 1.2 mM Na-butyrate, 34° C., 2 L bioreactor, average of four fermentations) was 87 ± 6%, the Cell viability ([2]; 2 days after addition of 1.2 mM Na-butyrate, 34° C., 2 L bioreactor, average of four fermentations) was 81 ± 12% and the Cell viability ([2]; 3 days after addition of 1.2 mM Na-butyrate, 34° C., 2 L bioreactor, average of four fermentations) was 78 ± 15%. For the same compound, the Cell viability ([2]; 4 days after addition of 1.2 mM Na-butyrate, 34° C., 2 L bioreactor, average of four fermentations) was 72 ± 14%, the Cell viability ([2]; 5 days after addition of 1.2 mM Na-butyrate, 34° C., 2 L bioreactor, average of four fermentations) was 67 ± 10% and the “activity (tc-uPA)” value [3] was 3961 U/ml. The Cell viability [4] was 63%.
